Data taken from patent publication EP0498680A1, “New beta-amino-alpha-hydroxycarboxylic acids and their use” (Sankyo Company Limited, priority 1991, dated 1992).

Tested on: HIV
Test: Inhibition of HIV proliferation in CEM cells
Type: cell-based
Details: 1 µM (0.6 µg/ml) of the test compound, 1 week
Method: CEM cells were inoculated in growth medium as defined in a) above, to a density of 2 x 10⁴ cells/ml. The inoculum was then seeded with a similar volume of serial 1 : 3 dilutions of the viral stock [a filtered preparation of the 48-hour culture supernatant of Molt4/HTLVIIIB cells prepared as described in Test Example 3 a) above]. The seeded inoculum was then cultured at 37°C under a 5% carbon dioxide atmosphere in the presence of 1 µM of the test compound (compound no. 14). After 1 week, the culture was spun down and the supernatant was collected. HIV antigen in the supernatant was determined as described in b) above.

(2S,3S)-[3-(N-3′-Hydroxyquinoxaline-2′-carbonyl-L-asparaginyl)amino-2-hydroxy-4-phenylbutyryl]-L-proline t-butyl ester [Compound No. 14]
spread of HIV (HIV antigen in the supernatant): sufficient to block the spread of HIV almost completely
